Laboratory results from patent US12012415B2, “Compositions and methods for the diagnosis, treatment and prevention of neoplastic and neurological disorders” (AscentGene, Inc., priority 2018, dated 2024).

Experiments:
SIRT1 and p-CREB = assay: Western blot of SIRT1, CREB and p-CREB in hippocampus, Aβ1-42 AD rat model; format: in vivo, rats; conditions: vs Aβ1-42 group
Method: (§1) Aβ1-42 (Sigma-Aldrich, St. Louis, MO, USA;) was dissolved in double-distilled water at the concentration of 5 μg/μl, and incubated at 37° C. for one week before surgery. The rats were randomly divided into four groups as Sham (n=8), Sham+AG-1601 (n=8), Aβ1-42 (n=8) and Aβ1-42+AG-1601 (n=8). The Alzheimer's disease rat models were established by intracerebroventricular (i.c.v.) injection of Aβ1-42 aggregates. The animals were anesthetized with intraperitoneal injection of pentobarbital sodium (50 mg/kg) and placed in a stereotaxic apparatus (Narishige, Japan). The head skin of the rat was opened and two small holes were drilled on both sides of skull following the coordinates: 0.8 mm posterior to bregma, +1.4 mm lateral to sagittal suture, 4.0 mm beneath the surface of brain. Aβ1-42 (2.0 μl per side) was injected bilaterally into the lateral ventricles through micro-syringe. The needle was taken out after 5 minutes of the injection to ensure the aggregates were infused completely. Rats in the Sham group underwent the same operational process, but same volumes of double-distilled water were injected instead of Aβ1-42. After surgery, all rats were injected with penicillin (100,000 U) in the hindquarter muscle to prevent infection. The animals of Sham+AG-1601 and Aβ1-42+AG-1601 groups were intravenous injection with AG-1601 (1 mg/kg), while the same volume vehicle was implemented for the other groups every day for 14 days after one week of the postoperative recovery.
Three rats of each group were randomly selected to be sacrificed and their hippocampal tissues were immediately removed at 0° C. and stored at minus 80° C. For subcellular fractionation, 100- to 200-mg weight rat hippocampal tissue was used. The procedure has been described (Yang et al., 2017). The tissues were homogenized for 30 s in 500 μl TEVP buffer containing 320 mM sucrose and the homogenate was obtained. The homogenate (H) was centrifuged at 900×g for 10 min at 4° C., and the supernatant (S1) was centrifuged for 20 min at 10000×g at 4° C. to obtain the cytosolic/light membrane fraction (S2) and the crude synaptosomal fraction pellet (P2). The pellet was resuspended in TEVP buffer containing 35.6 mM sucrose solution and then centrifuged at 25,000×g for 20 min at 4° C. The supernatant was stored at minus 80° C. and referred as the synaptic vesicular fraction (LS1). The pellet, synaptic plasma membranes (LP1), was resuspended in TEVP buffer containing 1% Triton X-100 and centrifuged at 330,000×g for 30 min at 4° C. The supernatant referred as Triton X-100-soluble fraction (TSF) was stored at minus 80° C. The final pellet, the Triton X-100-insoluble fraction (TIF), was homogenized in TEVP buffer containing 1% SDS.
The total homogenate (H) and synaptosomal fractions were analyzed. Equal amounts of 20 μg from each sample were separated via 10% or 13% SDS-PAGE gels and subsequently transferred onto PVDF membranes (Millipore, USA). […] After washing with TBST buffer, signals were visualized with the HRP substrate (Millipore, USA) and detected with a chemiluminescence kit (Tanon 5500, Tanon Science & Technology, China). The gray-scale value of protein band was quantified by NIH Image J program.

[1] = tested on: hippocampal synaptic plasticity in the CA1 region; assay: In vivo electrophysiology, hippocampal CA1 LTP and DEP, Aβ1-42 AD rat model; parameters: species or system rats; conditions: last 20 min, vs Aβ1-42 group
Method: as §1, with “recovery. The rats were placed in the stereotaxic apparatus after intraperitoneal injection of 30% urethane (0.4 g/kg Sigma-Aldrich, St. Louis, MO, USA). According to our former protocols (Gao et al., 2015) the appropriate incision on the scalp was cut to expose the skull and a small hole was drilled. […] The depth of both electrodes was optimized to acquire the proper amplitude of evoked potentials. […] A test stimulus was given every 30 s to record for 20 min as baseline. Then LTP was induced by TBS (30 trains of 12 pulses at 200 Hz) and recorded every 60s for 60 min. […]” for “recovery.”

C=CC1=C(C)c2cc3[nH]c(cc4nc(cc5[nH]c(cc1n2)c(C)c5C=C)C(C)=C4CCC(=O)O)c(CCC(=O)NCCCc1ccccc1)c3C [AG-1601, 3-(2,8,13,18-tetramethyl-3-(3-oxo-3-((3-phenylpropyl)amino)propyl)-12,17-divinylporphyrin-7-yl)propanoic acid]
SIRT1 protein level (SIRT1 and p-CREB): the decline was prevented
expression of CREB (SIRT1 and p-CREB): rescued the reductions
p-CREB level (SIRT1 and p-CREB): significantly increased
SIRT1 protein level (SIRT1 and p-CREB; listed as AG-1061): this decline was prevented
p-CREB level (SIRT1 and p-CREB; listed as AG-1061): significantly increased the expression of p-CREB protein
fEPSP slopes of DEP [1]: reversed effectively
fEPSP slopes of LTP [1]: significantly recovered
fEPSP slopes of LTP ([1]; listed as AG-1061): augmented significantly
